Assays:
Type in all cases: in vivo
rice (Oryza sativa) = experiment: Test B flooded paddy: rice; conditions: Flood; 250 g ai/ha; applied to paddy water at 2-leaf stage; visually evaluated after 13 to 15 days
In short: (§1)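 Greenhouse assay lasting 13 to 15 days. Treatment was into water flooding pots 3 cm deep, at the 2-leaf stage, with that level sustained afterwards. Scores compare treated with control plants visually, 100 denoting complete control and 0 no effect; a dash marks no test result.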

[1] = system: morningglory (Ipomoea spp.); experiment: Test A pre-/postemergence: morningglory; conditions: for Morningglory plant response rating: visual rating on 0 to 100 scale (0 no effect, 100 complete control), approximately ten days
In short: (§2)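 Soil medium was loam blended with sand; treatments pre- and postemergence were applied concurrently, postemergence at one- to two-leaf stage. Approximately ten days in greenhouse preceded visual comparison with untreated controls, scored 0 (no effect) to 100 (complete control).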

[2] = system: ducksalad (Heteranthera limosa); experiment: Test B flooded paddy: ducksalad; conditions: Flood; 250 g ai/ha; applied to paddy water at 2-leaf stage; visually evaluated after 13 to 15 days
In short: as §1

[3] = system: pigweed (Amaranthus retroflexus); experiment: Test A pre-/postemergence: pigweed; conditions: for Pigweed plant response rating: visual rating on 0 to 100 scale (0 no effect, 100 complete control), approximately ten days
In short: as §2

[4] = system: velvetleaf (Abutilon theophrasti); experiment: Test A pre-/postemergence: velvetleaf; conditions: for Velvetleaf plant response rating: visual rating on 0 to 100 scale (0 no effect, 100 complete control), approximately ten days
In short: as §2

[5] = system: sedge, umbrella (small-flower umbrella sedge Cyperus difformis); experiment: Test B flooded paddy: sedge, umbrella; conditions: Flood; 250 g ai/ha; applied to paddy water at 2-leaf stage; visually evaluated after 13 to 15 days
In short: as §1

[6] = system: barnyardgrass (Echinochloa crus-galli); experiment: Test A pre-/postemergence: barnyardgrass; conditions: for Barnyardgrass plant response rating: visual rating on 0 to 100 scale (0 no effect, 100 complete control), approximately ten days
In short: as §2

[7] = system: foxtail, giant (giant foxtail, Setaria faberii); experiment: Test A pre-/postemergence: foxtail, giant; conditions: for Foxtail, Giant plant response rating: visual rating on 0 to 100 scale (0 no effect, 100 complete control), approximately ten days
In short: as §2

[8] = system: crabgrass, large (large crabgrass, Digitaria sanguinalis); experiment: Test A pre-/postemergence: crabgrass, large; conditions: for Crabgrass, Large plant response rating: visual rating on 0 to 100 scale (0 no effect, 100 complete control), approximately ten days
In short: as §2

corn (Zea mays) = experiment: Test A pre-/postemergence: corn; conditions: for Corn plant response rating: visual rating on 0 to 100 scale (0 no effect, 100 complete control), approximately ten days
In short: as §2

[9] = system: barnyardgrass (Echinochloa crus-galli); experiment: Test B flooded paddy: barnyardgrass; conditions: Flood; 250 g ai/ha; applied to paddy water at 2-leaf stage; visually evaluated after 13 to 15 days
In short: as §1

[10] = system: wheat (Triticum aestivum); experiment: Test A pre-/postemergence: wheat; conditions: for Wheat plant response rating: visual rating on 0 to 100 scale (0 no effect, 100 complete control), approximately ten days
In short: as §2

[11] = Postemergence, 125 g ai/ha, 0 to 100 scale, 0 is no effect, 100 is complete control
[12] = Preemergence, 125 g ai/ha, 0 to 100 scale where 0 is no effect and 100 is complete control
[13] = Preemergence, 500 g ai/ha, 0 to 100 scale (0 no effect, 100 complete control)

Compound | Plant response rating, Rice (0 to 100 scale, 0 is no effect, 100 is complete control) (rice (Oryza sativa)) | Plant response rating, Morningglory [1, 11] | Morningglory plant response rating ([1]; Postemergence, 500 g ai/ha) | Plant response rating, Morningglory [1, 12] | Plant response rating, Morningglory [1, 13] | Plant response rating, Ducksalad (0 to 100 scale, 0 is no effect, 100 is complete control) [2] | Plant response rating, Pigweed [3, 11] | Pigweed plant response rating ([3]; Postemergence, 500 g ai/ha) | Plant response rating, Pigweed [3, 12] | Plant response rating, Pigweed [3, 13] | Plant response rating, Velvetleaf [4, 11] | Velvetleaf plant response rating ([4]; Postemergence, 500 g ai/ha) | Plant response rating, Velvetleaf [4, 12] | Plant response rating, Velvetleaf [4, 13] | Plant response rating, Sedge, Umbrella (0 to 100 scale, 0 is no effect, 100 is complete control) [5] | Plant response rating, Barnyardgrass [6, 11] | Barnyardgrass plant response rating ([6]; Postemergence, 500 g ai/ha) | Plant response rating, Barnyardgrass [6, 12] | Plant response rating, Barnyardgrass [6, 13] | Plant response rating, Foxtail, Giant [7, 11] | also measured
CC(C)c1nn(-c2ccc(F)cc2)nc1Cc1cccc(C(F)(F)F)c1 [Compound 150] | 0 | 0 | 0 | 0 | 0 | 0 | 10 | 50 | 0 | 0 | 0 | 10 | 0 | 0 | 0 | 0 | 0 | 0 | 0 | 0 | Foxtail, Giant plant response rating ([7]; Postemergence, 500 g ai/ha): 0; Plant response rating, Foxtail, Giant [7, 12]: 0; Plant response rating, Foxtail, Giant [7, 13]: 0; Plant response rating, Crabgrass, Large [8, 11]: 0; Crabgrass, Large plant response rating ([8]; Postemergence, 500 g ai/ha): 20; Plant response rating, Crabgrass, Large [8, 12]: 0; Plant response rating, Crabgrass, Large [8, 13]: 0; Plant response rating, Corn (corn (Zea mays); [11]): 0; Corn plant response rating (corn (Zea mays); Postemergence, 500 g ai/ha): 10; Plant response rating, Corn (corn (Zea mays); [12]): 0; Plant response rating, Corn (corn (Zea mays); [13]): 0; Plant response rating, Barnyardgrass (0 to 100 scale, 0 is no effect, 100 is complete control) [9]: 20; Plant response rating, Wheat [10, 11]: 0; Wheat plant response rating ([10]; Postemergence, 500 g ai/ha): 0; Plant response rating, Wheat [10, 12]: 0; Plant response rating, Wheat [10, 13]: 0
CC(C)c1nn(-c2ccc(F)cc2)nc1Cc1ccnc(C(F)(F)F)c1 [Compound 151] | 30 | 40 | 70 | 0 | 0 | 0 | 60 | 80 | 10 | 60 | 30 | 50 | 0 | 0 | 0 | 10 | 20 | 0 | 0 | 10 | Foxtail, Giant plant response rating ([7]; Postemergence, 500 g ai/ha): 30; Plant response rating, Foxtail, Giant [7, 12]: 0; Plant response rating, Foxtail, Giant [7, 13]: 20; Plant response rating, Crabgrass, Large [8, 11]: 10; Crabgrass, Large plant response rating ([8]; Postemergence, 500 g ai/ha): 30; Plant response rating, Crabgrass, Large [8, 12]: 0; Plant response rating, Crabgrass, Large [8, 13]: 10; Plant response rating, Corn (corn (Zea mays); [11]): 10; Corn plant response rating (corn (Zea mays); Postemergence, 500 g ai/ha): 20; Plant response rating, Corn (corn (Zea mays); [12]): 0; Plant response rating, Corn (corn (Zea mays); [13]): 0; Plant response rating, Barnyardgrass (0 to 100 scale, 0 is no effect, 100 is complete control) [9]: 0; Plant response rating, Wheat [10, 11]: 0; Wheat plant response rating ([10]; Postemergence, 500 g ai/ha): 0; Plant response rating, Wheat [10, 12]: 0; Plant response rating, Wheat [10, 13]: 0
O=C(c1ccnc(C(F)(F)F)c1)c1nn(-c2ccc(F)cc2)nc1F [Compound 158] | 75 | 0 | 10 | 0 | 0 | 0 | 10 | 80 | 0 | 0 | 0 | 0 | 0 | 0 | 0 | 0 | 0 | 0 | 0 | 0 | Foxtail, Giant plant response rating ([7]; Postemergence, 500 g ai/ha): 0; Plant response rating, Foxtail, Giant [7, 12]: 0; Plant response rating, Foxtail, Giant [7, 13]: 0; Plant response rating, Crabgrass, Large [8, 11]: 0; Crabgrass, Large plant response rating ([8]; Postemergence, 500 g ai/ha): 20; Plant response rating, Crabgrass, Large [8, 12]: 0; Plant response rating, Crabgrass, Large [8, 13]: 0; Plant response rating, Corn (corn (Zea mays); [11]): 0; Corn plant response rating (corn (Zea mays); Postemergence, 500 g ai/ha): 20; Plant response rating, Corn (corn (Zea mays); [12]): 0; Plant response rating, Corn (corn (Zea mays); [13]): 0; Plant response rating, Barnyardgrass (0 to 100 scale, 0 is no effect, 100 is complete control) [9]: 0; Plant response rating, Wheat [10, 11]: 0; Wheat plant response rating ([10]; Postemergence, 500 g ai/ha): 0; Plant response rating, Wheat [10, 12]: 0; Plant response rating, Wheat [10, 13]: 0
Fc1ccc(-n2nc(F)c(Cc3ccnc(C(F)(F)F)c3)n2)cc1 [Compound 159] | 30 | 60 | 90 | 0 | 0 | 20 | 90 | 100 | 70 | 90 | 20 | 60 | 0 | 0 | 60 | 50 | 80 | 10 | 80 | 40 | Foxtail, Giant plant response rating ([7]; Postemergence, 500 g ai/ha): 90; Plant response rating, Foxtail, Giant [7, 12]: 40; Plant response rating, Foxtail, Giant [7, 13]: 90; Plant response rating, Crabgrass, Large [8, 11]: 20; Crabgrass, Large plant response rating ([8]; Postemergence, 500 g ai/ha): 40; Plant response rating, Crabgrass, Large [8, 12]: 10; Plant response rating, Crabgrass, Large [8, 13]: 30; Plant response rating, Corn (corn (Zea mays); [11]): 20; Corn plant response rating (corn (Zea mays); Postemergence, 500 g ai/ha): 30; Plant response rating, Corn (corn (Zea mays); [12]): 0; Plant response rating, Corn (corn (Zea mays); [13]): 0; Plant response rating, Barnyardgrass (0 to 100 scale, 0 is no effect, 100 is complete control) [9]: 30; Plant response rating, Wheat [10, 11]: 0; Wheat plant response rating ([10]; Postemergence, 500 g ai/ha): 30; Plant response rating, Wheat [10, 12]: 0; Plant response rating, Wheat [10, 13]: 0

Reference: patent publication US9302999B2, “Substituted triazoles as herbicides” (E. I. DU PONT DE NEMOURS AND COMPANY, priority 2012, dated 2016)
